In brackets after ≈: the same amount, converted by molar mass.
How the values were obtained:
Solubility at pH 6.8 = format: physicochemical; conditions: pH 6.8, aqueous buffer, thermodynamic from solid; read-out: solubility
Summary of the method: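 Solubility was measured at pH 6.8 following the cited Zhou et al. (2007) procedure.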

PI3K gamma = biological target: T1, PI3K gamma (Homo sapiens, UniProt P48736); experiment: PI3K gamma kinase assay (Kinase-Glo luminescence); format: biochemical
T1 construct: His tag (C); made in house; host or cells: baculovirus (pVL1393); Tn5 or TiniPro insect cells; construct from Roger Williams lab, MRC LMB
T1 sequence (P48736 144-1102 limits assumed): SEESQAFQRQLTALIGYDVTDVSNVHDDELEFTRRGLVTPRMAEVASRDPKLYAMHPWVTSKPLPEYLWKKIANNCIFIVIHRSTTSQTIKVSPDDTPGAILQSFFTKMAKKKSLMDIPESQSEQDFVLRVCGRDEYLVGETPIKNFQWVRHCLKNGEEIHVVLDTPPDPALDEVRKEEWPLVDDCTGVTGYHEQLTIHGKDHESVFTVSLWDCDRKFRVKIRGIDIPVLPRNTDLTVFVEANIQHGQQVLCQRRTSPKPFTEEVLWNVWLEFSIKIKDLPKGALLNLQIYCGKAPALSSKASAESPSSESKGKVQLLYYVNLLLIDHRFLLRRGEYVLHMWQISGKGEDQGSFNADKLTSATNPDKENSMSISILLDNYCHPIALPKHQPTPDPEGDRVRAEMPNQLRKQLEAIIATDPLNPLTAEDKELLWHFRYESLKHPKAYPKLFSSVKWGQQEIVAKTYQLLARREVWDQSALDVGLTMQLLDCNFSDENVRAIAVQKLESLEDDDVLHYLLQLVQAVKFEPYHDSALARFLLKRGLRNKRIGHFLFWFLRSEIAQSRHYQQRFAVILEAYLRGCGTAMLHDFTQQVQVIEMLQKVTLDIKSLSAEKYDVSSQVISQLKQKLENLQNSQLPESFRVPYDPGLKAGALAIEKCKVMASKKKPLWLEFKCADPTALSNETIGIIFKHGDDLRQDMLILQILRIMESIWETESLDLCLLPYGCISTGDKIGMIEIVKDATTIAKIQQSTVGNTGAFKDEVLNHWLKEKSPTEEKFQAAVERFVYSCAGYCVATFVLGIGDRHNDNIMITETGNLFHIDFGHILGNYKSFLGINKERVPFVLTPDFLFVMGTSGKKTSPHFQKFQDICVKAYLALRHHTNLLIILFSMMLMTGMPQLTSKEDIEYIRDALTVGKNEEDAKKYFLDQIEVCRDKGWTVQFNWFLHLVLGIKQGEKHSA
Summary of the method: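 Luminescent ATP-depletion (Kinase-Glo) assay with 150 nM PI3Kγ, 1 μM ATP and 10 μg/mL phosphatidylinositol in 10 mM Tris-HCl pH 7.5, 3 mM MgCl2, 50 mM NaCl, 0.05% CHAPS, 1 mM DTT; 120 min at room temperature. Eight-point dilutions; IC50 by four-parameter logistic fit.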

[1] = system: PKB Ser473 phosphorylation in Rat1-myr-HA-p110 delta cells; experiment: Reverse protein array assay, PKB Ser473 phosphorylation in Rat1-myr-p110 delta cells; format: cell-based; conditions: read-out: p-PKB IC50
Summary of the method: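 Cells: Rat1-myr-HA-p110 alpha/beta/delta, seeded ≥20 h. Lysis on ice 10 min; reverse-phase protein array, 4 lysate dilutions; fluorescence read, relative intensity.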

| SMILES | solubility (Solubility at pH 6.8) | IC50 (PI3K gamma) | IC50 [1] |
| --- | --- | --- | --- |
| Cc1ncc(-c2ccc3ncc4c(c3c2)n(-c2cn(C)nc2C)c(=O)n4C)cc1NS(C)(=O)=O [Example 76, N-{5-[1-(1,3-Dimethyl-1H-pyrazol-4-yl)-3-methyl-2-oxo-2,3-dihydro-1H-imidazo[4,5-c]quinolin-8-yl]-2-methyl-pyridin-3-yl}-methanesulfonamide] | 0.013 mg/mL (≈ 27.2 µM) | 0.096 µM | 0.39 µM |
| CNC(=O)c1cc(-c2ccc3ncc4c(c3c2)n(-c2cn(C)nc2C)c(=O)n4C)cnc1OC [Example 125.1, 5-[1-(1,3-Dimethyl-1H-pyrazol-4-yl)-3-methyl-2-oxo-2,3-dihydro-1H-imidazo[4,5-c]quinolin-8-yl]-2-methoxy-N-methyl-nicotinamide] | 0.006 mg/mL (≈ 13.1 µM) | 0.363 µM | 0.091 µM |
| Cc1nn(C)cc1-n1c(=O)n(C)c2cnc3ccc(-c4cnc5ccccc5c4)cc3c21 [Example 38, 1-(1,3-Dimethyl-1H-pyrazol-4-yl)-3-methyl-8-quinolin-3-yl-1,3-dihydro-imidazo[4,5-c]quinolin-2-one] | 0.013 mg/mL (≈ 30.9 µM) | 0.123 µM | 0.019 µM |
| CCOc1cc(-c2ccc3ncc4c(c3c2)n(-c2cn(C(C)C)nc2C)c(=O)n4C)cnc1COC [Example 197.2, 8-(5-Ethoxy-6-methoxymethyl-pyridin-3-yl)-1-(1-isopropyl-3-methyl-1H-pyrazol-4-yl)-3-methyl-1,3-dihydro-imidazo[4,5-c]quinolin-2-one] | 0.225 mg/mL (≈ 462 µM) |  | 0.336 µM |
| CCn1c(=O)n(-c2cn(C)nc2C)c2c3cc(-c4cncc(N)c4)ccc3ncc21 [Example 245, 8-(5-Amino-pyridin-3-yl)-1-(1,3-dimethyl-1H-pyrazol-4-yl)-3-ethyl-1,3-dihydro-imidazo[4,5-c]quinolin-2-one] | 0.129 mg/mL (≈ 323 µM) |  | 0.719 µM |
| CCOc1cc(-c2ccc3ncc4c(c3c2)n(-c2c(C)nn(CC(=O)N(C)C)c2C)c(=O)n4C)cnc1C [Example 85.3, 2-{4-[8-(5-Ethoxy-6-methyl-pyridin-3-yl)-3-methyl-2-oxo-2,3-dihydro-imidazo[4,5-c]quinolin-1-yl]-3,5-dimethyl-pyrazol-1-yl}-N,N-dimethyl-acetamide] | 0.076 mg/mL (≈ 148 µM) |  | 0.749 µM |
| CCOCc1ncc(-c2ccc3ncc4c(c3c2)n(-c2cn(C)nc2C)c(=O)n4C)cc1OC [Example 196.2, 1-(1,3-Dimethyl-1H-pyrazol-4-yl)-8-(6-ethoxymethyl-5-methoxy-pyridin-3-yl)-3-methyl-1,3-dihydro-imidazo[4,5-c]quinolin-2-one] | > 0.459 mg/mL |  | 0.335 µM |
| Cc1nn(CC(=O)N2CCC2)cc1-n1c(=O)n(C)c2cnc3ccc(-c4cnc(N5CCCC5)nc4)cc3c21 [Example 247.2, 1-[1-(2-Azetidin-1-yl-2-oxo-ethyl)-3-methyl-1H-pyrazol-4-yl]-3-methyl-8-(2-pyrrolidin-1-yl-pyrimidin-5-yl)-1,3-dihydro-imidazo[4,5-c]quinolin-2-one] | 0.056 mg/mL (≈ 107 µM) |  | 0.288 µM |
| Cc1nn(C)cc1-n1c(=O)n(C)c2cnc3ccc(-c4cncc(N(C)C)c4)cc3c21 [Example 178, 8-(5-Dimethylamino-pyridin-3-yl)-1-(1,3-dimethyl-1H-pyrazol-4-yl)-3-methyl-1,3-dihydro-imidazo[4,5-c]quinolin-2-one] | 0.025 mg/mL (≈ 60.5 µM) |  | 0.085 µM |
| CCN1C(=O)OCc2ncc(-c3ccc4ncc5c(c4c3)n(-c3cn(C)nc3C)c(=O)n5C)cc21 [Example 237, 1-(1,3-Dimethyl-1H-pyrazol-4-yl)-8-(1-ethyl-2-oxo-1,4-dihydro-2H-pyrido[3,2-d][1,3]oxazin-7-yl)-3-methyl-1,3-dihydro-imidazo[4,5-c]quinolin-2-one] | 0.014 mg/mL (≈ 29.8 µM) |  | 0.049 µM |
| COc1ccc(-c2ccc3ncc4c(c3c2)n(-c2cc(C)nn2C)c(=O)n4C)cc1OC [Example 1.4, 8-(3,4-Dimethoxy-phenyl)-1-(2,5-dimethyl-2H-pyrazol-3-yl)-3-methyl-1,3-dihydro-imidazo[4,5-c]quinolin-2-one] | 0.004 mg/mL (≈ 9.31 µM) |  | 0.131 µM |
| CNc1ncc(-c2ccc3ncc4c(c3c2)n(-c2c(C)nn(C)c2C)c(=O)n4C)cc1C(F)(F)F [Example 144.1, 3-Methyl-8-(6-methylamino-5-trifluoromethyl-pyridin-3-yl)-1-(1,3,5-trimethyl-1H-pyrazol-4-yl)-1,3-dihydro-imidazo[4,5-c]quinolin-2-one] | > 0.481 mg/mL |  | 0.084 µM |
| COc1ncc(-c2ccc3ncc4c(c3c2)n(-c2cn(C)nc2Cl)c(=O)n4C)cc1N [Example 89, 8-(5-Amino-6-methoxy-pyridin-3-yl)-1-(3-chloro-1-methyl-1H-pyrazol-4-yl)-3-methyl-1,3-dihydro-imidazo[4,5-c]quinolin-2-one] | 0.003 mg/mL (≈ 6.88 µM) |  | 0.007 µM |
| Cc1nn(C)cc1-n1c(=O)n(C)c2cnc3ccc(-c4cncc(NC5CCC5)c4)cc3c21 [Example 172, 8-(5-Cyclobutylamino-pyridin-3-yl)-1-(1,3-dimethyl-1H-pyrazol-4-yl)-3-methyl-1,3-dihydro-imidazo[4,5-c]quinolin-2-one] | 0.011 mg/mL (≈ 25 µM) |  | 0.015 µM |
| Cc1nn(C)cc1-n1c(=O)n(C)c2cnc3ccc(-c4cnc(CO)c(OC(CF)CF)c4)cc3c21 [Example 192, 1-(1,3-Dimethyl-1H-pyrazol-4-yl)-8-[5-(2-fluoro-1-fluoromethyl-ethoxy)-6-hydroxymethyl-pyridin-3-yl]-3-methyl-1,3-dihydro-imidazo[4,5-c]quinolin-2-one] | 0.027 mg/mL (≈ 54.6 µM) |  | 0.072 µM |
| Cc1cnn(C)c1-n1c(=O)n(C)c2cnc3ccc(-c4cncc(OC(C)C)c4)cc3c21 [Example 58.3, 1-(2,4-Dimethyl-2H-pyrazol-3-yl)-8-(5-isopropoxy-pyridin-3-yl)-3-methyl-1,3-dihydro-imidazo[4,5-c]quinolin-2-one] | 0.006 mg/mL (≈ 14 µM) |  | 0.577 µM |

Next, values leading:

| solubility (Solubility at pH 6.8) | IC50 (PI3K gamma) | IC50 [1] | SMILES |
| --- | --- | --- | --- |
| 0.004 mg/mL (≈ 8.48 µM) | 0.137 µM | 0.508 µM | CCOc1ccc(-c2ccc3ncc4c(c3c2)n(-c2c(C)nn(C)c2C)c(=O)n4C)cc1OCC [Example 27.2, 8-(3,4-Diethoxy-phenyl)-3-methyl-1-(1,3,5-trimethyl-1H-pyrazol-4-yl)-1,3-dihydro-imidazo[4,5-c]quinolin-2-one] |
| 0.003 mg/mL (≈ 6.56 µM) | 0.069 µM | 0.059 µM | CCOc1ccc(-c2ccc3ncc4c(c3c2)n(-c2cn(CC)nc2C)c(=O)n4C)cc1OC [Example 29.1, 8-(4-Ethoxy-3-methoxy-phenyl)-1-(1-ethyl-3-methyl-1H-pyrazol-4-yl)-3-methyl-1,3-dihydro-imidazo[4,5-c]quinolin-2-one] |
| 0.071 mg/mL (≈ 161 µM) | 0.548 µM |  | CNC(=O)c1ccc(-c2ccc3ncc4c(c3c2)n(-c2c(C)nn(C)c2C)c(=O)n4C)cn1 [Example 15.2, 5-[3-Methyl-2-oxo-1-(1,3,5-trimethyl-1H-pyrazo1-4-yl)-2,3-dihydro-1H-imidazo[4,5-c]quinolin-8-yl]-pyridine-2-carboxylic acid methylamide] |
| 0.031 mg/mL (≈ 65.7 µM) |  | 0.102 µM | CCOc1ncc(-c2ccc3ncc4c(c3c2)n(-c2cn(C)nc2C)c(=O)n4C)cc1NC(C)=O [Example 65, N-{5-[1-(1,3-Dimethyl-1H-pyrazol-4-yl)-3-methyl-2-oxo-2,3-dihydro-1H-imidazo[4,5-c]quinolin-8-yl]-2-ethoxy-pyridin-3-yl}-acetamide] |
| > 0.415 mg/mL |  | 0.906 µM | Cn1nccc1-n1c(=O)n(C)c2cnc3ccc(-c4ccc(NCCO)nc4)cc3c21 [Example 21.1, 8-[6-(2-Hydroxy-ethylamino)-pyridin-3-yl]-3-methyl-1-(2-methyl-2H-pyrazol-3-yl)-1,3-dihydro-imidazo[4,5-c]quinolin-2-one] |
| 0.005 mg/mL (≈ 11.6 µM) |  | 0.023 µM | Cc1nn(C(C)C)cc1-n1c(=O)n(C)c2cnc3ccc(-c4cnc(N)c(F)c4)cc3c21 [Example 142.3, 8-(6-Amino-5-fluoro-pyridin-3-yl)-1-(1-isopropyl-3-methyl-1H-pyrazol-4-yl)-3-methyl-1,3-dihydro-imidazo[4,5-c]quinolin-2-one] |
| > 0.455 mg/mL |  | 0.266 µM | Cc1nn(C)cc1-n1c(=O)n(C)c2cnc3ccc(-c4ccc(N5CCNCC5)nc4)cc3c21 [Example 126, 1-(1,3-Dimethyl-1H-pyrazol-4-yl)-3-methyl-8-(6-piperazin-1-yl-pyridin-3-yl)-1,3-dihydro-imidazo[4,5-c]quinolin-2-one] |
| 0.289 mg/mL (≈ 652 µM) |  | 0.07 µM | Cc1nn(C(C)C)cc1-n1c(=O)n(C)c2cnc3ccc(-c4cnc(N)c(CO)c4)cc3c21 [Example 169.1, 8-(6-Amino-5-hydroxymethyl-pyridin-3-yl)-1-(1-isopropyl-3-methyl-1H-pyrazol-4-yl)-3-methyl-1,3-dihydro-imidazo[4,5-c]quinolin-2-one] |
| 0.004 mg/mL (≈ 9.53 µM) |  | 0.012 µM | Cc1nn(C)cc1-n1c(=O)n(C)c2cnc3ccc(-c4cnc(N)c(Cl)c4)cc3c21 [Example 148.2, 8-(6-Amino-5-chloro-pyridin-3-yl)-1-(1,3-dimethyl-1H-pyrazol-4-yl)-3-methyl-1,3-dihydro-imidazo[4,5-c]quinolin-2-one] |
| > 0.429 mg/mL |  | 0.869 µM | Cc1nn(C)c(C)c1-n1c(=O)n(C)c2cnc3ccc(-c4cnc(N)c(CO)c4)cc3c21 [Example 169.2, 8-(6-Amino-5-hydroxymethyl-pyridin-3-yl)-3-methyl-1-(1,3,5-trimethyl-1H-pyrazol-4-yl)-1,3-dihydro-imidazo[4,5-c]quinolin-2-one] |
